The compounds below were run on demethylation of H3K4 (H3K4me3 mark) in U2OS cells (assay: Histone lysine demethylase immunofluorescence assay, non-transfected U2OS cells (H3K4me3 staining)). Conditions: Homo sapiens, 20 hours.
Assay type: cell-based
Procedure: Histone Lysine Demethylase Immunofluorescence Assays for IC50 Value Determination, Non-Transfected Cells
U2OS cells were harvested and seeded into multi well plates into media containing compound. The media used was DMEM containing 5% FBS and pen/strep. 20 hours after incubation of cells with compounds, the cells were washed once in PBS, harvested by fixation with formaldehyde 4% aqueous solution, and washed 2 times in PBS. Subsequently, the cells were permeabilized in PBS with 0.2% Triton X-100 for 10 min at room temperature. Blocking was performed in PBS with 0.2% Triton X-100 and 5% FBS for 45 min at room temperature. The cells were incubated with αH3K4me3 primary antibody (Cell Signaling, #9751S) diluted 1:1000 in blocking solution over night at 4° C. After incubation with primary antibody, the cells were washed 3 times with PBS, incubated with secondary antibody diluted 1:1000 (Alexa fluor 594 goat anti rabbit IgG, Invitrogen, A11012) and Hoechst, 20 μg/ml (Sigma, 33342) in blocking solution, and washed again 3 times with PBS. Finally, PBS was added and high throughput imaging and analysis were performed by an IN Cell Analyzer 1000 (GE Healthcare). The IC50 values seen in Table 4 were based on an average measure of the staining of the H3K4me3 mark in cells.

`CCN(CC)CCCCNCc1cc(C(=O)OCCN(C)C)ccn1` [drawing 229, 2-(dimethylamino)ethyl 2-({[4-(diethylamino)butyl]amino}methyl) pyridine-4-carboxylate] and `CCN(CC)CCCCNCc1cc(C(=O)O)ccn1` [drawing 225, 2-({[4-(diethylamino)butyl]amino}methyl) pyridine-4-carboxylic acid] fall in the same range of IC50: 1000 to 50000 nM for the first, 1000 to 50000 nM for the second.

`CCOC(=O)c1ccccc1OC(=O)c1ccnc(CNCCCCN(CC)CC)c1` [drawing 228, 2-(ethoxycarbonyl)phenyl 2-({[4-(diethylamino)butyl]amino}methyl) pyridine-4-carboxylate] and `CCOC(=O)Nc1ccc(COC(=O)c2ccnc(CNCCCCN(CC)CC)c2)cc1` [drawing 231, {4-[(ethoxycarbonyl)amino]phenyl}methyl 2-({[4-(diethylamino)butyl]amino}methyl) pyridine-4-carboxylate] cannot be ordered by IC50: under 1000 nM for the first, under 1000 nM for the second.

`CCOC(=O)c1ccnc(CNCC(=O)N(CC)CCN(C)C)c1` [drawing 241, ethyl 2-{[({[2-(dimethylamino)ethyl](ethyl)carbamoyl}methyl)amino]methyl}pyridine-4-carboxylate] and `CCN(CCN(C)C)C(=O)CNCc1cc(C(=O)OC)ccn1` [drawing 246, methyl 2-{[({[2-(dimethylamino)ethyl](ethyl)carbamoyl}methyl)amino]methyl}pyridine-4-carboxylate] cannot be ordered by IC50: under 1000 nM for the first, under 1000 nM for the second.

`CCN(CCN(C)C)C(=O)CNCc1cc(C(=O)OCC(F)(F)F)ccn1` [drawing 251, 2,2,2-trifluoroethyl 2-{[({[2-(dimethylamino)ethyl](ethyl)carbamoyl}methyl)amino]methyl}pyridine-4-carboxylate] and `CCN(CCN(C)C)C(=O)CNCc1cc(C(=O)OCC(F)F)ccn1` [drawing 256, 2,2-difluoroethyl 2-{[({[2-(dimethylamino)ethyl](ethyl)carbamoyl}methyl)amino]methyl}pyridine-4-carboxylate] cannot be ordered by IC50: under 1000 nM for the first, under 1000 nM for the second.

`CCOC(=O)c1ccccc1OC(=O)c1ccnc(CNCC(=O)N(CC)CCN(C)C)c1` [drawing 235, 2-(ethoxycarbonyl)phenyl 2-{[({[2-(dimethylamino)ethyl](ethyl)carbamoyl}methyl)amino]methyl}pyridine-4-carboxylate] and `CCN(CCN(C)C)C(=O)CNCc1cc(C(=O)Oc2ccc(OC)cc2)ccn1` [drawing 234, 4-methoxyphenyl 2-{[({[2-(dimethylamino)ethyl](ethyl)carbamoyl}methyl)amino]methyl}pyridin-4-carboxylate] cannot be ordered by IC50: under 1000 nM for the first, under 1000 nM for the second.

`CCN(CCN(C)C)C(=O)CNCc1cc(C(=O)N2CCOC2=O)ccn1` [drawing 248, N-[2-(dimethylamino)ethyl]-N-ethyl-2-({[4-(2-oxo-1,3-oxazolidine-3-carbonyl)pyridin-2-yl]methyl}amino)acetamide] and `CCN(CCN(C)C)C(=O)CNCc1cc(C(=O)O)ccn1` [drawing 226, 2-{[({[2-(dimethylamino)ethyl](ethyl)carbamoyl}methyl)amino]methyl}pyridine-4-carboxylic acid] fall in the same range of IC50: 1000 to 50000 nM for the first, 1000 to 50000 nM for the second.

`CCN(CCN(C)C)C(=O)CNCc1cc(C(=O)OCCF)ccn1` [drawing 255, 2-fluoroethyl 2-{[({[2-(dimethylamino)ethyl](ethyl)carbamoyl}methyl)amino]methyl}pyridine-4-carboxylate] and `CCN(CCN(C)C)C(=O)CNCc1cc(C(=O)OC(C)CC(C)=O)ccn1` (stereo not drawn) [drawing 238, 4-oxopentan-2-yl 2-{[({[2-(dimethylamino)ethyl](ethyl)carbamoyl}methyl)amino]methyl}pyridine-4-carboxylate] cannot be ordered by IC50: under 1000 nM for the first, under 1000 nM for the second.

`C=CC(CCNC(=O)C(F)(F)F)OC(=O)c1ccnc(CNCC(=O)N(CC)CCN(C)C)c1` (stereo not drawn) [drawing 242, 5-(trifluoroacetamido)pent-1-en-3-yl 2-{[({[2-(dimethylamino)ethyl](ethyl)carbamoyl}methyl)amino]methyl}pyridine-4-carboxylate] and `CCN(CCN(C)C)C(=O)CNCc1cc(C(=O)OC(C)CCNC(=O)C(F)(F)F)ccn1` (stereo not drawn) [drawing 239, 4-(trifluoroacetamido)butan-2-yl 2-{[({[2-(dimethylamino)ethyl](ethyl)carbamoyl}methyl)amino]methyl}pyridin-4-carboxylate] cannot be ordered by IC50: under 1000 nM for the first, under 1000 nM for the second.

Compared with `CCN(CCN(C)C)C(=O)CNCc1cc(C(=O)Oc2c(OC(C)C)cccc2OC(C)C)ccn1` [drawing 253, 2,6-bis(propan-2-yloxy)phenyl 2-{[({[2-(dimethylamino)ethyl](ethyl)carbamoyl}methyl)amino]methyl}pyridine-4-carboxylate], `CCN(CCN(C)C)C(=O)CNCc1cc(C(=O)Oc2ccc(C(C)(C)C)cc2)ccn1` [drawing 237, 4-tert-butylphenyl 2-{[({[2-(dimethylamino)ethyl](ethyl)carbamoyl}methyl)amino]methyl}pyridine-4-carboxylate] is lower in IC50: 1000 to 50000 nM for the first, under 1000 nM for the second.

`CCN(CCN(C)C)C(=O)CNCc1cc(C(=O)OC(CCNC(=O)C(F)(F)F)CC(=O)OC(C)C)ccn1` (stereo not drawn) [drawing 250, propan-2-yl 3-(2-{[({[2-(dimethylamino)ethyl](ethyl)carbamoyl}methyl)amino]methyl}pyridine-4-carbonyloxy)-5-(trifluoroacetamido)pentanoate] and `CCN(CCN(C)C)C(=O)CNCc1cc(C(=O)OC(C)CCN(C)C(=O)C(F)(F)F)ccn1` (stereo not drawn) [drawing 240, 4-(2,2,2-trifluoro-N-methylacetamido)butan-2-yl 2-{[({[2-(dimethylamino)ethyl](ethyl)carbamoyl}methyl)amino]methyl}pyridine-4-carboxylate] cannot be ordered by IC50: under 1000 nM for the first, under 1000 nM for the second.

`CCCCCCCCCCCCCCCC(=O)OCC(COC(=O)CCCCCCCCCCCCCCC)OC(=O)c1ccnc(CNCC(=O)N(CC)CCN(C)C)c1` [drawing 244, 2-(2-{[({[2-(dimethylamino)ethyl](ethyl)carbamoyl}methyl)amino]methyl}pyridine-4-carbonyloxy)-3-(hexadecanoyloxy)propyl hexadecanoate] and `CCCCCCCCCCCCCCCC(=O)OCC(COC(=O)c1ccnc(CNCC(=O)N(CC)CCN(C)C)c1)OC(=O)CCCCCCCCCCCCCCC` (stereo not drawn) [drawing 245, 1-(2-{[({[2-(dimethylamino)ethyl](ethyl)carbamoyl}methyl)amino]methyl}pyridine-4-carbonyloxy)-3-(hexadecanoyloxy)propan-2-yl hexadecanoate] cannot be ordered by IC50: under 1000 nM for the first, under 1000 nM for the second.

`CCN(CCN(C)C)C(=O)CNCc1cc(C(=O)Nc2ncco2)ccn1` [drawing 252, 2-{[({[2-(dimethylamino)ethyl](ethyl)carbamoyl}methyl)amino]methyl}-N-(1,3-oxazol-2-yl)pyridine-4-carboxamide] and `CCN(CCN(C)C)C(=O)CNCc1cc(C(=O)Nc2nccn2C)ccn1` [drawing 254, 2-{[({[2-(dimethylamino)ethyl](ethyl)carbamoyl}methyl)amino]methyl}-N-(1-methyl-1H-imidazol-2-yl)pyridine-4-carboxamide] fall in the same range of IC50: 1000 to 50000 nM for the first, 1000 to 50000 nM for the second.

`CCOC(=O)N(C)c1ccc(COC(=O)c2ccnc(CNCCCCN(CC)CC)c2)cc1` [drawing 236] and `CCN(CC)CCCCNCc1cc(C(=O)Oc2ccc(OC)cc2)ccn1` [drawing 227, 4-methoxyphenyl 2-({[4-(diethylamino)butyl]amino}methyl) pyridine-4-carboxylate] cannot be ordered by IC50: under 1000 nM for the first, under 1000 nM for the second.

First: CCN(CC)CCCCNCc1cc(C(=O)Oc2c(OC)cccc2OC)ccn1 [drawing 232, 2,6-dimethoxyphenyl 2-({[4-(diethylamino)butyl]amino}methyl) pyridine-4-carboxylate]
Second: COC(=O)c1ccnc(CNCCCN2CCCC2)c1 [drawing 224, methyl 2-({[3-(pyrrolidin-1-yl)propyl]amino}methyl)pyridine-4-carboxylate]
The IC50 of the first is lower: under 1000 nM for the first, 1000 to 50000 nM for the second.

Going from `C=CC(CCN(C)C(=O)C(F)(F)F)OC(=O)c1ccnc(CNCC(=O)N(CC)CCN(C)C)c1` (stereo not drawn) [drawing 243, 5-(2,2,2-trifluoro-N-methylacetamido)pent-1-en-3-yl 2-{[({[2-(dimethylamino)ethyl](ethyl)carbamoyl}methyl)amino]methyl}pyridine-4-carboxylate] to `O=C(CNCc1cc(C(=O)O)ccn1)NC1CCN(CCCc2ccccc2)CC1` [drawing 223, 2-{[({[1-(3-phenylpropyl)piperidin-4-yl]carbamoyl}methyl)amino]methyl} pyridine-4-carboxylic acid], the IC50 rises from under 1000 nM to over 50000 nM. The first is the more potent here.
